pIC50: −log10 of the molar value. Where two headings read alike, the source gives them in different places.
What was measured:
RXF 1781L = experiment: In vitro 3D assay, clonogenic assay (colony formation in semi-solid medium); type: cell-based; settings: Homo sapiens, 3D colony formation, continuous exposure 8 to 13 days
Protocol: (§1) Ketorolac was characterized for its ability to inhibit anchorage independent growth and ex vivo colony formation of tumor cells in semi-solid medium. The compound was tested against 10 human tumor xenograft-derived cell suspensions or tumor cell lines of renal cancer.
(§2) Cell lines were routinely passaged one or twice weekly. […] The percentage of viable cells was determined in a Neubauer-hemocytometer using trypan blue exclusion.
(§3) Tumor xenografts (patient-derived, as well as cell line-derived xenografts) were passaged as subcutaneous xenografts in NMRI nu/nu mice. At a tumor volume of 400-1000 mm^3 tumor-bearing mice were sacrificed and tumors were collected under sterile conditions without delay according to the relevant Oncotest SOPs and the relevant animal welfare guidelines published by the FELASA and the GV-SOLAS. […] The percentage of viable cells was determined in a Neubauer-hemocytometer using trypan blue exclusion. Aliquots of the cells were frozen down, and stored in liquid nitrogen. On each day of an experiment, a frozen aliquot of tumor cells was thawed and used for preparation of assay plates.
(§4) The clonogenic assay was carried out in a 96 well plate format using ultra low attachment plates. […] Every plate included six untreated control wells and drug-treated groups in duplicate at 9 concentrations. […] At the time of maximum colony formation, counts were performed with an automatic image analysis system (Celllnsight NXT, Thermo Scientific). 48 hours prior to evaluation, vital colonies were stained with a sterile aqueous solution of 2-(4-iodophenyl)-3-(4-nitrophenyl)-5-phenyltetrazolium chloride (1 mg/ml, 100 μl/well).

RXF 1220L = experiment: as above; type: cell-based; settings: Homo sapiens, 3D colony formation, continuous exposure 8 to 13 days
Protocol: as §1, §2, §3, §4

ACHN = experiment: as above; type: cell-based; settings: Homo sapiens, 3D colony formation, continuous exposure 8 to 13 days
Protocol: as §1, §2, §3, §4

A-498 cells = experiment: as above; type: cell-based; settings: Homo sapiens, A498, A-498, 3D colony formation, continuous exposure 8 to 13 days
Protocol: as §1, §2, §3, §4

RXF 393L = experiment: as above; type: cell-based; settings: Homo sapiens, 3D colony formation, continuous exposure 8 to 13 days
Protocol: as §1, §2, §3, §4

RXF 1183L [1] = experiment: as above; type: cell-based; settings: Homo sapiens, 3D colony formation, continuous exposure 8 to 13 days
Protocol: as §1, §2, §3, §4

SN12C = experiment: as above; type: cell-based; settings: Homo sapiens, 3D colony formation, continuous exposure 8 to 13 days
Protocol: as §1, §2, §3, §4

786-O = experiment: as above; type: cell-based; settings: Homo sapiens, 786-0, 3D colony formation, continuous exposure 8 to 13 days
Protocol: as §1, §2, §3, §4

RXF 486L = experiment: as above; type: cell-based; settings: Homo sapiens, 3D colony formation, continuous exposure 8 to 13 days
Protocol: as §1, §2, §3, §4

Caki-1 = experiment: as above; type: cell-based; settings: Homo sapiens, Caki-1, 3D colony formation, continuous exposure 8 to 13 days
Protocol: as §1, §2, §3, §4

Par-4 = experiment: PAR-4 activity, Western blot of cell supernatant and lysate; type: cell-based; settings: normal mouse embryonic fibroblast cells, 25 μM, 18-21 h, cell supernatant, dose dependent
Protocol: Mouse embryonic fibroblast cells were harvested from exponential phase cultures. After a 24 h recovery period to allow the cells to resume exponential growth the cells were treated with 25 μM of ketorolac followed by further 18-21 h of incubation. Induction of Par-4 was checked in the cell supernatant and cell lysate by subjecting the samples to Western blot analysis with antibodies specific for Par-4. The samples were also subjected to SDS/PAGE and Coomassie blue staining to determine albumin levels in serum from the CM as another loading control.

RXF 1183L [2] = experiment: In vitro 3D combination study, clonogenic assay, Bliss independence; type: cell-based, human; settings: RXF 1183L cells seeded in soft agar, concentration-dependent
Protocol: (§5) The objective of this study was to assess anti-tumor efficacy of ketorolac in combination with sunitinib in a 5×5 matrix combination format against tumor cell lines of renal cancer using a clonogenic assay with image analysis as read-out.
(§6) The clonogenic assay was carried out in a 96 well plate format using ultra low attachment plates. For each test cells were prepared as described above, and assay plates were prepared as follows: each test well contained a layer of semi-solid medium with tumor cells (50 μl), and a second layer of medium supernatant with or without test compounds (100 μl). The cell layer consisted of 3×10^3 to 1×10^4 tumor cells per well, which were seeded in 50 μl/well cell culture medium (IMDM, supplemented with 20% (v/v) fetal calf serum, 0.01% (w/v) gentamicin, and 0.4% (w/v) agar). The soft agar layer was immediately covered with 90 μl of the same culture medium without agar. After 24 h the test compounds were added after serial dilution in IMDM and transfer in cell culture medium, and left on the cells for the duration of the experiment (continuous exposure, 100 μL total drug overlay). Every plate included six untreated control wells and drug-treated groups in a layout as shown above. […] At the time of maximum colony formation, counts were performed with an automatic image analysis system (Celllnsight NXT, Thermo Scientific). […]

RXF A-498 = experiment: as above; type: cell-based, human; settings: RXF A-498 cells seeded in soft agar, concentration-dependent
Protocol: as §5, §6

[3] = test system: tumor cell lines of renal cancer; experiment: In vitro 3D combination study, clonogenic assay, both cell lines; type: cell-based; settings: Homo sapiens, A498; compound alone, colony formation in soft agar, range over RXF 1183L and RXF A-498; read-out: Relative IC50, single agent
Protocol: as §5, §6

Work on `O=C(c1ccccc1)c1ccc2n1CCC2C(=O)O` (racemic) [Ketorolac, (±)-5-benzoyl-2,3-dihydro-1H-pyrrolizine-1-carboxylic acid] yielded a pIC50 (RXF 1781L; read-out: Absolute IC50) of 2.72, a pIC50 (RXF 1781L; read-out: Relative IC50) of 2.69 and a pIC50 (RXF 1220L; read-out: Absolute IC50) of 2.75. For the same compound, the pIC50 (RXF 1220L; read-out: Relative IC50) was 2.76, the pIC50 (ACHN; read-out: Absolute IC50) was 2.50 and the pIC50 (ACHN; read-out: Relative IC50) was 2.49. The pIC50 (A-498 cells; read-out: Absolute IC50) was 3.55, the pIC50 (A-498 cells; read-out: Relative IC50) was 3.55 and the pIC50 (RXF 393L; read-out: Absolute IC50) was 2.55. It also gave a pIC50 (RXF 393L; read-out: Relative IC50) of 2.56, a pIC50 (RXF 1183L [1]; read-out: Absolute IC50) of 2.81 and a pIC50 (RXF 1183L [1]; read-out: Relative IC50) of 2.83. For the same compound, the pIC50 (SN12C; read-out: Absolute IC50) was 2.59, the pIC50 (SN12C; read-out: Relative IC50) was 2.58 and the pIC50 (786-O; read-out: Absolute IC50) was 2.42. The pIC50 (786-O; read-out: Relative IC50) was 2.38, the pIC50 (RXF 486L; read-out: Absolute IC50) was 2.57 and the pIC50 (RXF 486L; read-out: Relative IC50) was 2.58. The pIC50 (Caki-1; read-out: Absolute IC50) was 2.43, the pIC50 (Caki-1; read-out: Relative IC50) was 2.43 and the “Induction of Par-4 secretion” value (Par-4) was “robust Par-4 secretion”. The “Colony formation, single agent” value (RXF 1183L [2]) was “inhibited colony formation”, the “Colony formation, single agent” value (RXF A-498) was “inhibited colony formation” and the pIC50 [3] was 2.75 to 3.23.

— US10391080B2, “Ketorolac for the treatment of cancer” (Cipla Limited, priority 2016, dated 2019)
